Counter-ions that a name gives are not always drawn.
The molecules below were run against T1, dopamine D2 receptor (Rattus norvegicus, UniProt P61169) (assay: Receptor binding assay: affinity for the dopamine D2 receptor (3H-ADTN displacement, rat striatal membranes)). Conditions: not given.
T1 construct: Striata from rats (Sprague Dawley, Charles River) were homogenized immediately after removal; from tissue; host or cells: rat striatum (Sprague Dawley, Charles River), membranes
T1 sequence (P61169 whole entry): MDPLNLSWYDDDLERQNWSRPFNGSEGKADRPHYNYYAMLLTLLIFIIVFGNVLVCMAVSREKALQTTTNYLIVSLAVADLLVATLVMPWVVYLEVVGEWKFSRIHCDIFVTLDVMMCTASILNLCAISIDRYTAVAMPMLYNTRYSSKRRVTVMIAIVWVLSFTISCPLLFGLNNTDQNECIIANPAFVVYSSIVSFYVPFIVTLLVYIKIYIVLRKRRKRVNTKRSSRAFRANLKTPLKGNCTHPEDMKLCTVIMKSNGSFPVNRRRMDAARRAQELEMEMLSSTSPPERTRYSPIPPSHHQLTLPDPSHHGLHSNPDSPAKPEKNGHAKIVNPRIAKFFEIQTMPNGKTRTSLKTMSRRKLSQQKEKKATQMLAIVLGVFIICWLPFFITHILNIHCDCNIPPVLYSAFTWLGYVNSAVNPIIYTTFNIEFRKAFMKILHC
Set-up: species or system rat (Sprague Dawley)
Experimental: The effects of the novel compounds can be shown in the receptor binding assay as follows:
Striata from rats (Sprague Dawley, Charles River) were homogenized immediately after removal in 0.32M sucrose solution (0° C.). The homogenate was filtered through gauze, the filtrate was centrifuged at 1000 xg (5 min at 4° C.) and the resulting supernatant was centrifuged at 40000 xg (4° C., 10 min). The residue (membranes) was taken up in incubation buffer (50 mM tris-HCl, 1 mM MgCl2 and 0.1% ascorbic acid, pH 7.4) and incubated at 37° C. for 20 min. The residue was subsequently washed 2×with incubation buffer by resuspension and recentrifugation. The membranes were frozen in portions in liquid nitrogen.
The assay mixtures (1 ml) were composed of membranes (380 μg of protein), 1 nM ^3 H-ADTN (NEN, Dreieich Germany, specific radioactivity 1.4 TBq/mmol) and 0.1 μM SCH 23390 (total binding) or a) with the addition of 50 nM spiperone (non-specific binding) or b) with-test substance. The mixtures were prepared in triplicate.
After the incubation (40 min at 25° C.) the mixtures were filtered through glass fiber filters (Whatman GF/B) and briefly washed with ice-cold washing buffer (Tris-HCl pH 7.4). The radioactivity retained on the filters was determined by liquid scintillation counting. The non-specific binding comprised about 40-50% of the total binding.
The evaluation of the competition plots and the determination of the dissociation constant took place by iterative non-linear regression analysis based on the "ligand" program (Muson and Rodbard: Anal. Biochem. 107 (1980) 220).
`Cc1[nH]c(=O)sc1CCCN1CC=C(c2ccccc2)CC1` [Example 1, 4-Methyl-5-[3-(1,2,3,6-tetrahydro-4-phenylpyridyl)propyl]-thiazolin-2-one hydrochloride] showed a Ki of 8 nM.

Same assay, conditions: rat striatal membranes (380 μg protein), 1 nM 3H-ADTN, 0.1 μM SCH 23390, 40 min at 25° C., non-specific: 50 nM spiperone; read-out: Affinity of the test substances for the dopamine D2 receptor, Ki
`Cc1[nH]c(=O)sc1CCCN1CCN(c2cccc(C(F)(F)F)c2)CC1` [Example 13, 4-Methyl-5-[3-(4-(3-trifluoromethylphenyl)piperazinyl)propyl]thiazolin-2-one hydrochloride] showed a Ki of 45 nM.
Work on `Cc1[nH]c(=O)sc1CCCN1CCN(c2ncccn2)CC1` [Example 7, 4-Methyl-5-[3-(4-pyrimidin-2-ylpiperazinyl)propyl]thiazolin-2-one dihydrochloride] yielded a Ki of 12 nM.
Work on `CCc1ccccc1N1CCN(CCCc2sc(=O)[nH]c2C)CC1` [Example 10, 4-Methyl-5-[3-(4-(2-ethylphenyl)piperazinyl)propyl]thiazolin-2-one dihydrochloride] yielded a Ki of 25 nM.
`CSc1ccccc1N1CCN(CCCc2sc(=O)[nH]c2C)CC1` [Example 12, 4-Methyl-5-[3-(4-(2-methylthiophenyl)piperazinyl)propyl]thiazolin-2-onehydrochloride] was tested, and the Ki was 6 nM.
With `Cc1c(CCCN2CCN(c3ccccc3)CC2)sc(=O)n1C` [Example 17, 3,4-Dimethyl-5-[3-(4-phenylpiperazinyl)propyl]thiazolin-2-one dihydrochloride] the Ki was 40 nM.
`Cc1[nH]c(=O)sc1CCCN1CCN(c2ccccn2)CC1` [Example 2, 4-Methyl-5-[3-(4-pyrid-2-ylpiperazinyl)propyl]thiazolin-2-one dihydrochloride] showed a Ki of 15 nM.
With `CCOc1ccccc1N1CCN(CCCc2sc(=O)[nH]c2C)CC1` [Example 14, 4-Methyl-5-[3-(4-(2-ethoxyphenyl)piperazinyl)propyl]thiazolin-2-one dihydrochloride] the Ki was 6 nM.

— patent US5401762A, “Aminoalkyl-substituted thiazolin-2-ones, the preparation and use thereof” (BASF Aktiengesellschaft, priority 1991, dated 1995)
